Test [1] deals with T7 transcription (Escherichia phage T7, UniProt P00573). As to conditions: cited from earlier work.
Test [2] deals with T1, RIG-I (Homo sapiens, UniProt O95786).
T1 construct: endogenous in cells; host or cells: 293T cells
T1 sequence (O95786 1-925): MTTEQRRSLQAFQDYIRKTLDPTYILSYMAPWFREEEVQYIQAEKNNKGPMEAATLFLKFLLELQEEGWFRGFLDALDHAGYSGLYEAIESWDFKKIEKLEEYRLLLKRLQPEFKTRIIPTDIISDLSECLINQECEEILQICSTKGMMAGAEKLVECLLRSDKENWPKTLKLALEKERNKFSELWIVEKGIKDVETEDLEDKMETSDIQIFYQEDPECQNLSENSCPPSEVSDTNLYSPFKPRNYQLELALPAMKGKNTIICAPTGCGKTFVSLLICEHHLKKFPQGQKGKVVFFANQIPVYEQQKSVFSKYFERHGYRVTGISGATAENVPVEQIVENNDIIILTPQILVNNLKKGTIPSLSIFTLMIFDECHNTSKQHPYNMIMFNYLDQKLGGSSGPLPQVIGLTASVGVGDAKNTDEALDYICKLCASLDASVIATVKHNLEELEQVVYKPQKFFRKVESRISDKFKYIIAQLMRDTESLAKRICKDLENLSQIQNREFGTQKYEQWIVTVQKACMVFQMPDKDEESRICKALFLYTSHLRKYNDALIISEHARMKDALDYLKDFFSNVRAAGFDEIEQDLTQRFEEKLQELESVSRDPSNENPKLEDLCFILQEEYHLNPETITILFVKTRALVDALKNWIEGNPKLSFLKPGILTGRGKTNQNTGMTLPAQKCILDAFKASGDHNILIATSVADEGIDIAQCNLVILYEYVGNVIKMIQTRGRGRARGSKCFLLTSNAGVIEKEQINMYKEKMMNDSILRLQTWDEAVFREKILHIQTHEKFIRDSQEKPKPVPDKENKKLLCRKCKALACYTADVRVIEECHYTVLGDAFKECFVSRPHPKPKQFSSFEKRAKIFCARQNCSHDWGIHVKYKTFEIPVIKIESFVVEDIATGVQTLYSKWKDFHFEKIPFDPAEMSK
The test can be described thus: Binding ability of mRNA to RIG-I (RNA co-immunoprecipitation, RT-qPCR) in transfected 293T cells. Format: cell-based. As to conditions: eGFP mRNA made with the cap analog, 24 h after transfection. The text has this: Test Example 2: Determination of the binding ability of mRNA to RIG I
RIG-I mainly includes two repeated caspase activation and recruitment domains (CARD) at the N-terminus, a helicase structure in the middle and a RNA domain at the C-terminus. The overexpression of the N-terminal CARD domain of RIG-I can promote cells to secrete type I interferon (IFN) even in the absence of viral infection. Therefore, this domain is mainly responsible for transmitting signals downstream. RIG-I can recognize exogenous RNA, mediate the production of cytokines and chemokines, and recruit innate immune cells to trigger immune responses. mRNA with high immunogenicity is easily recognized and combined by RIG. Thus, mRNA with strong binding ability to RIG-1 has high immunogenicity.
In this study, 293T cells were transfected with the eGFP mRNAs prepared by in vitro transcription initiated by the oligonucleotide primers with an acyclic nucleoside structure for initial capping in Examples 1-4, 6, 7, and 11 and the cap analogs in Comparative Examples 1-2, and collected 24 hours later. The intracellular protein RIG I and RNA bound thereto were co-immunoprecipitated by the RNA co-immunoprecipitation method. Finally, reverse transcription and real-time quantitative PCR were performed on these mRNAs.
The specific cell culture conditions were the same as above. Cells were collected 24 hours after transfection. First, a fixing solution was added for incubation. After 10 min, glycine solution of an appropriate concentration was added to terminate the reaction, and cells were collected. The collected cells were lysed using the lysis solution, centrifuged at 12,000 rpm and 4° C. for 10 min. The supernatant was collected and incubated with an appropriate amount of RIG-I or IgG antibody on a shaker at 4° C. overnight. Then 20 μl of Protein A/G magnetic beads were added, incubated at 4° C. for 4 h, and washed on a magnetic stand. After washing was completed, RNA was extracted and used for subsequent RT-qPCR to determine the expression results.
For orientation: In qPCR the cycle at which signal appears reflects the starting amount.

Test [3] addresses T2, T7 RNA polymerase (Escherichia phage T7, UniProt P00573). As to the kind of experiment: IVT capping rate of mRNA by LC-MS. Type of test: biochemical. As to conditions: for Capping rate: LC-MS after RNase H cleavage; for Increased capping rate relative to Comparative Example 1: vs capping rate 93.5% of Comparative Example 1. Here is the method:
(§1) Test Example 1: Determination of in vitro transcription yield and capping efficiency of mRNA
(§2) In vitro synthesis of mRNA was performed using the oligonucleotide primer with an acyclic nucleoside structure for initial capping by the co-transcriptional capping method. First, the plasmid was digested with NotI overnight at […]. DNA template was extracted to synthesize mRNA by in vitro transcription. The oligonucleotide primers with an acyclic nucleoside structure for initial capping in Examples 1-4, 6, 7, and 11 and the capping analogs in Comparative Examples 1-2 were used as cap structures respectively.
Liquid chromatography mass spectrometry (LC-MS) was used to determine the IVT capping rate of mRNA with different initial cap analogs. First, it is necessary to design a labeled DNA probe that matches the starting base of the transcript product mRNA, and usually the label is biotin. The streptavidin-labeled magnetic beads were washed, and incubated with the synthesized DNA probe, mRNA and 10×RNase H reaction buffer at room temperature for 30 min. The mixture was mixed slowly while incubating, then added with 20 μl of RNase. H (5U/μl), incubated at 37° C. for 3 h, and mixed thoroughly every half hour. After the incubation was completed, the magnetic beads were washed and added with 100 μL of 75% methanol heated to 80° C. The mixture was heated to 80° C. on a hot plate and kept for 3 min, and then placed on a magnetic stand. The supernatant was collected and dried at room temperature for 45 min to 10 μl using an evaporative centrifuge. The sample was then resuspended in 50 μl of 100 μM EDTA/1% MeOH, which was ready for LC-MS analysis to determine RNA capping during the transcription reaction. Since there was a significant difference in molecular weight between capped and uncapped bases, the capping rate of mRNA transcription initiated by different cap analogs can be determined through the difference in molecular mass.

The target of test [4] is T2, T7 RNA polymerase. As to the kind of experiment: In vitro transcription yield of mRNA by co-transcriptional capping. As to conditions: for Yield: mRNA from 20 μl IVT, 1 μg template, 37° C. 2 h, Nanodrop One; for Increased yield relative to Comparative Example 1: mRNA IVT yield vs 50 μg of Comparative Example 1. Format: biochemical. Here is the method: as §1, §2
Note: During the experiment, the volume of materials required for the system was first calculated, and then the sample was added. The system was firstly added with sterile enzyme-free water, then added with 10X buffer, NTPs, and cap structure subsequently, mixed, centrifuged gently, then added with nuclease inhibitor, inorganic pyrophosphatase, T7 RNA polymerase, and linearized DNA template, mixed thoroughly, centrifuged gently, and incubated at 37° C. After 2 h, the system was added with 1U of DNase I and incubated at 37° C. for another 30 min to remove the DNA template. Then RNA was purified, usually by the magnetic bead purification method. The purified mRNA was dissolved in sterile enzyme-free water, and then quantitatively measured using Nanodrop One.

Structures are written as SMILES.

T2 sequence (P00573 whole entry): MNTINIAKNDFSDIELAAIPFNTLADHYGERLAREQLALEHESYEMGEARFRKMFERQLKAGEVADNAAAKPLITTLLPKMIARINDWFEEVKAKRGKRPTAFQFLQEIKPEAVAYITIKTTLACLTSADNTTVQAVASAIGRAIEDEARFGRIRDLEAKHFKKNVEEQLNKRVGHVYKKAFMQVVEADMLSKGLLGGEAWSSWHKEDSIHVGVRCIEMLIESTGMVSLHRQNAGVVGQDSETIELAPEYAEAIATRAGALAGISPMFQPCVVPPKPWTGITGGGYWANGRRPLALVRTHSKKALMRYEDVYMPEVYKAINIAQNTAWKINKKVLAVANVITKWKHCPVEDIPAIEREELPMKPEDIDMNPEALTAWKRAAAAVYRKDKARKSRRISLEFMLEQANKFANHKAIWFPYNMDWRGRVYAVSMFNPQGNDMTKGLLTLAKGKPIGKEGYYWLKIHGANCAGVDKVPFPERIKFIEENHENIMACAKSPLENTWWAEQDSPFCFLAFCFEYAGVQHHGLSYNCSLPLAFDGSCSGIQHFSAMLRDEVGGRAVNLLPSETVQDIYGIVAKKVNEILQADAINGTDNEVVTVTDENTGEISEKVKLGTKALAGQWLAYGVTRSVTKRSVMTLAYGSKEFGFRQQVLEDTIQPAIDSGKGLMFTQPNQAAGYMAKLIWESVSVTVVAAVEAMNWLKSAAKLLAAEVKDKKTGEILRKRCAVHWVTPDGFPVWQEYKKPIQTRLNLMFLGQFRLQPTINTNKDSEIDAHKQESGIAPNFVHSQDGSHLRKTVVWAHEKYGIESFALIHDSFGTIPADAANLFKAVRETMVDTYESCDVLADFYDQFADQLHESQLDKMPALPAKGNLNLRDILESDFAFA
T7 transcription, sequence (P00573 whole entry): as above

Consider `COC1C(OP(=O)(O)OC[C@H]2O[C@@H](n3cnc4c(=O)[nH]c(N)nc43)C(O)C2O)[C@@H](COP(=O)(O)OP(=O)(O)OP(=O)([O-])OC[C@H]2O[C@@H](n3c[n+](C)c4c(=O)[nH]c(N)nc43)C(O)C2O)O[C@H]1n1cnc2c(N)ncnc21` (stereo in doubt) [Comparative Example 1, ^m7GpppA2′OMepG, reference compound], for which, in test [1] (per milliliter of transcription reaction), the “Capped RNA prepared per milliliter of transcription reaction system” value is given as 4 mg. Also, the “Immunogenicity of transcription products” value in test [1] (vs ARCA) was “lower than that of ARCA”. For the same compound, the “Relative binding ability to RIG-I” value in test [2] worked out at 3.1±0.51. The Capping rate in test [3] worked out at 93.5%. The compound further yielded a Yield in test [4] of 50 µg.

In the case of `COC[C@@H](COP(=O)(O)OP(=O)([O-])OP(=O)(O)OC[C@H]1O[C@@H](n2cnc3c(N)ncnc32)C(OC)C1OP(=O)(O)OC[C@H]1O[C@@H](n2cnc3c(=O)[nH]c(N)nc32)C(O)C1O)O[C@H](CO)n1c[n+](C)c2c(=O)[nH]c(N)nc21` (stereo in doubt) [Example 11], in test [2], the “Relative binding ability to RIG-I” value is 1.5±0.25. Further, in test [3], the Capping rate is given as 96.8% and the “Increased capping rate relative to Comparative Example 1” value worked out at 3.3%. Further, in test [4], the “Increased yield relative to Comparative Example 1” value is 42% and the Yield stood at 71 µg.

`COC1C(OP(=O)(O)OC[C@H](CO)O[C@H](CO)n2cnc3c(=O)[nH]c(N)nc32)[C@@H](COP(=O)(O)OP(=O)(O)OP(=O)([O-])OC[C@H]2O[C@@H](n3c[n+](C)c4c(=O)[nH]c(N)nc43)C(O)C2O)O[C@H]1n1cnc2c(N)ncnc21` (some centres unmarked) [Comparative Example 2, reference compound]: the “Relative binding ability to RIG-I” value in test [2] worked out at 4.0 ± 0.31. The compound also came in with a Capping rate in test [3] of 90.1%. In test [4], this compound gave a Yield of 41 µg.

As for `CO[C@H]1C(OP(=O)(O)OC[C@H]2O[C@@H](n3cnc4c(=O)[nH]c(N)nc43)[C@@H](O)C2O)[C@@H](COP(=O)(O)OP(=O)([O-])OP(=O)(O)OC[C@H](CO)O[C@H](CO)n2c[n+](C)c3c(=O)[nH]c(N)nc32)O[C@H]1n1cnc2c(N)ncnc21` (some centres unmarked) [Example 1], in test [3], the Capping rate is recorded as 99.3% and the “Increased capping rate relative to Comparative Example 1” value worked out at 5.8%. In test [4], the “Increased yield relative to Comparative Example 1” value was found to be 44% and the Yield is 72 µg.

Regarding `CO[C@H]1C(OP(=O)(O)OC[C@H](CO)O[C@H](CO)n2cnc3c(=O)[nH]c(N)nc32)[C@@H](COP(=O)(O)OP(=O)([O-])OP(=O)(O)OC[C@H](CO)O[C@H](CO)n2c[n+](C)c3c(=O)[nH]c(N)nc32)O[C@H]1n1cnc2c(N)ncnc21` (some centres unmarked) [Example 2], in test [2], the “Relative binding ability to RIG-I” value was determined as 2.4 ± 0.34. Also, in test [3], the Capping rate is listed as 96.5% and the “Increased capping rate relative to Comparative Example 1” value amounted to 3%. This compound also had a Yield in test [4] of 58 µg.

Take `COC[C@@H](O[C@@H](COP(=O)(O)OC[C@H](CO)O[C@H](CO)n1cnc2c(=O)[nH]c(N)nc21)COP(=O)(O)OP(=O)([O-])OP(=O)(O)OC[C@H](CO)O[C@H](CO)n1c[n+](C)c2c(=O)[nH]c(N)nc21)n1cnc2c(N)ncnc21` [Example 4]: the “Relative binding ability to RIG-I” value in test [2] is 2.8 ± 0.62. Moreover, in test [3], the Capping rate worked out at 93.3%. In test [4], this compound came in with a Yield of 45 µg.

For the compound `COCCOC1C(OP(=O)(O)OC[C@H]2O[C@@H](n3cnc4c(=O)[nH]c(N)nc43)C(O)C2O)[C@@H](COP(=O)(O)OP(=O)(O)OP(=O)([O-])OC[C@H](CO)O[C@H](CO)n2c[n+](C)c3c(=O)[nH]c(N)nc32)O[C@H]1n1cnc2c(N)ncnc21` (some centres unmarked) [Example 6], the “Relative binding ability to RIG-I” value in test [2] was determined as 1.4±0.32. Also, the Capping rate in test [3] came to 95.2%. For the same compound, in test [4], the Yield amounted to 44 µg.

`C[n+]1cn([C@@H](CO)O[C@@H](CO)COP(=O)([O-])OP(=O)(O)OP(=O)(O)OC[C@]23COC(C2OP(=O)(O)OC[C@H]2O[C@@H](n4cnc5c(=O)[nH]c(N)nc54)C(O)C2O)[C@H](n2cnc4c(N)ncnc42)O3)c2nc(N)[nH]c(=O)c21` (some centres unmarked) [Example 7]: the “Relative binding ability to RIG-I” value in test [2] was 2.1 ± 0.21. In addition, in test [3], the Capping rate is listed as 97.6% and the “Increased capping rate relative to Comparative Example 1” value amounted to 4.1%. Also, in test [4], the “Increased yield relative to Comparative Example 1” value came to 36% and the Yield is 68 µg.

Source of the values: patent US20240132534A1, “OLIGONUCLEOTIDE PRIMER WITH AN ACYCLIC NUCLEOSIDE STRUCTURE FOR INITIAL CAPPING” (JIANGSU SYNTHGENE BIOTECHNOLOGY CO., LTD., priority 2022, published 2024).
